Results: patent US20260109707A1, “HETEROBIFUNCTIONAL COMPOUNDS AND METHODS OF TREATING DISEASE” (Halda Therapeutics OpCo. Inc., priority 2022, published 2026)
Like-named read-outs stand apart in the source and are kept apart here.

Columns and labels:
[1] = system: VCaP cells; assay: Cellular growth inhibition assay for VCaP cells (CellTiter-Glo, 72 hours); format: cell-based, human
Method in brief: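 Luminescent viability signal after 72 h of compound exposure gave GI50 values by four-parameter nonlinear regression. Compounds were added in 0.5% DMSO to cells plated 24 h earlier at 5000/well in DMEM containing 10% FBS.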

[2] = system: T-Rex 293 cell line SC3 cells lacking increased expression of androgen receptor protein; assay: Cellular growth inhibition assay, T-Rex 293 SC3 cells without doxycycline (CellTiter-Glo, 72 hours); format: cell-based; conditions: T-Rex 293 cell line SC3 cells not exposed to doxycycline (lacking increased androgen receptor expression)
Method in brief: (§1)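 Doxycycline (10 ng/mL) was either included or omitted to toggle wild-type androgen receptor expression in SC3 cells, a T-Rex 293 clone, grown in stripped-serum, phenol red-free medium. After 72 hours with compound, viable cells were quantified by CellTiter-Glo 2.0.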

[3] = system: T47D cells; assay: Cellular growth inhibition assay for T47D cells (CellTiter-Glo, 72 hours); format: cell-based, human; conditions: 72 hours treatment
Method in brief: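 Growth inhibition as GI50, fitted with four parameters to CellTiter-Glo luminescence after 72 h of compound exposure (0.5% DMSO). Cells were T47D, grown in insulin-supplemented (0.2 units/mL) DMEM with 10% FBS and treated one day post-seeding.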

[4] = system: T-Rex 293 cell line SC3 cells having increased expression of androgen receptor protein due to exposure to doxycycline; assay: Cellular growth inhibition assay, T-Rex 293 SC3 cells with doxycycline (CellTiter-Glo, 72 hours); format: cell-based; conditions: T-Rex 293 SC3 cells with increased androgen receptor expression due to doxycycline (10 ng/mL)
Method in brief: as §1

| GI50 ([1]; Homo sapiens, VCaP, 72 h) [µM] | GI50 ([3]; Homo sapiens, T47D, 72 h) [µM] | GI50 [3] [µM] | GI50 [1] [µM] | SMILES | GI50 ([2]; 72 h) [µM] | GI50 ([4]; 72 h) [µM] | GI50 [2] [µM] | GI50 [4] [µM] |
| --- | --- | --- | --- | --- | --- | --- | --- | --- |
| < 0.5 | < 0.5 | – | – | Cc1sc2c(c1C)C(c1ccc(C[C@@H]3CCCN(c4ccc(C(=O)N[C@H]5CC[C@H](Oc6ccc(C#N)c(Cl)c6)CC5)nn4)C3)cc1)=N[C@@H](Cc1ncco1)c1nnc(C)n1-2 [I-252] | < 0.5 | < 0.5 | – | – |
| < 0.5 | < 0.5 | – | – | Cc1sc2c(c1C)C(c1ccc(C[C@H]3CCCN(c4ccc(C(=O)N[C@H]5CC[C@H](Oc6ccc(C#N)c(Cl)c6)CC5)nn4)C3)cc1)=N[C@@H](Cc1ncco1)c1nnc(C)n1-2 [I-253] | < 0.5 | < 0.5 | – | – |
| < 0.5 | < 0.5 | – | – | Cc1sc2c(c1C)C(c1ccc(CC[C@H]3CCCN(c4ccc(C(=O)N[C@H]5CC[C@H](Oc6ccc(C#N)c(Cl)c6)CC5)nn4)C3)cc1)=N[C@@H](Cc1ncco1)c1nnc(C)n1-2 [I-254] | < 0.5 | < 0.5 | – | – |
| < 0.5 | 0.5 to 1.5 | – | – | Cc1sc2c(c1C)C(c1ccc(CC[C@@H]3CCCN(c4ccc(C(=O)N[C@H]5CC[C@H](Oc6ccc(C#N)c(Cl)c6)CC5)nn4)C3)cc1)=N[C@@H](Cc1ncco1)c1nnc(C)n1-2 [I-255] | < 0.5 | < 0.5 | – | – |
| < 0.5 | < 0.5 | – | – | Cc1sc2c(c1C)C(c1ccc(OCC[C@@H]3CCCN(c4ccc(C(=O)N[C@H]5CC[C@H](Oc6ccc(C#N)c(Cl)c6)CC5)nn4)C3)cc1)=N[C@@H](Cc1ncco1)c1nnc(C)n1-2 [I-256] | < 0.5 | < 0.5 | – | – |
| < 0.5 | < 0.5 | – | – | Cc1sc2c(c1C)C(c1ccc(OCC[C@H]3CCCN(c4ccc(C(=O)N[C@H]5CC[C@H](Oc6ccc(C#N)c(Cl)c6)CC5)nn4)C3)cc1)=N[C@@H](Cc1ncco1)c1nnc(C)n1-2 [I-257] | < 0.5 | < 0.5 | – | – |
| < 0.5 | < 0.5 | – | – | Cc1sc2c(c1C)C(c1ccc(C[C@H]3CCC4CN(c5ccc(C(=O)N[C@H]6CC[C@H](Oc7ccc(C#N)c(Cl)c7)CC6)nn5)CCN4C3)cc1)=N[C@H](Cc1ncco1)c1nnc(C)n1-2 (stereo partly shown) [I-260] | < 0.5 | < 0.5 | – | – |
| < 0.5 | < 0.5 | – | – | Cc1sc2c(c1C)C(c1ccc(C[C@H]3CC[C@]4(C3)CN(c3ccc(C(=O)N[C@H]5CC[C@H](Oc6ccc(C#N)c(Cl)c6)CC5)nn3)CCO4)cc1)=N[C@@H](Cc1ncco1)c1nnc(C)n1-2 [I-266] | < 0.5 | < 0.5 | – | – |
| < 0.5 | < 0.5 | – | – | Cc1sc2c(c1C)C(c1ccc(C[C@H]3CC[C@@]4(C3)CN(c3ccc(C(=O)N[C@H]5CC[C@H](Oc6ccc(C#N)c(Cl)c6)CC5)nn3)CCO4)cc1)=N[C@@H](Cc1ncco1)c1nnc(C)n1-2 [I-267] | < 0.5 | < 0.5 | – | – |
| < 0.5 | < 0.5 | – | – | Cc1sc2c(c1C)C(c1ccc(CCC[C@@H]3CCCN(c4ccc(C(=O)N[C@H]5CC[C@H](Oc6ccc(C#N)c(Cl)c6)CC5)nn4)C3)cc1)=N[C@@H](Cc1ncco1)c1nnc(C)n1-2 [I-276] | < 0.5 | < 0.5 | – | – |
| < 0.5 | < 0.5 | – | – | Cc1sc2c(c1C)C(c1ccc(CCC[C@H]3CCCN(c4ccc(C(=O)N[C@H]5CC[C@H](Oc6ccc(C#N)c(Cl)c6)CC5)nn4)C3)cc1)=N[C@@H](Cc1ncco1)c1nnc(C)n1-2 [I-277] | < 0.5 | < 0.5 | – | – |
| < 0.5 | < 0.5 | – | – | Cc1sc2c(c1C)C(c1ccc(CCO[C@@H]3CCCN(c4ccc(C(=O)N[C@H]5CC[C@H](Oc6ccc(C#N)c(Cl)c6)CC5)nn4)C3)cc1)=N[C@@H](Cc1ncco1)c1nnc(C)n1-2 [I-278] | > 3 | < 0.5 | – | – |
| < 0.5 | 0.5 to 1.5 | – | – | Cc1sc2c(c1C)C(c1ccc(CCO[C@H]3CCCN(c4ccc(C(=O)N[C@H]5CC[C@H](Oc6ccc(C#N)c(Cl)c6)CC5)nn4)C3)cc1)=N[C@@H](Cc1ncco1)c1nnc(C)n1-2 [I-279] | < 0.5 | < 0.5 | – | – |

Continued, molecule first:

| SMILES | GI50 ([1]; Homo sapiens, VCaP, 72 h) [µM] | GI50 ([3]; Homo sapiens, T47D, 72 h) [µM] | GI50 [3] [µM] | GI50 [1] [µM] | GI50 ([2]; 72 h) [µM] | GI50 ([4]; 72 h) [µM] | GI50 [2] [µM] | GI50 [4] [µM] |
| --- | --- | --- | --- | --- | --- | --- | --- | --- |
| Cc1sc2c(c1C)C(c1ccc(N3CCN(C(=O)c4ccc(C(=O)N[C@H]5CC[C@H](Oc6ccc(C#N)c(Cl)c6)CC5)nn4)CC3)cc1)=N[C@@H](Cc1ncco1)c1nnc(C)n1-2 [I-250] | > 3 | 0.5 to 1.5 | – | – | > 3 | < 0.5 | – | – |
| Cc1sc2c(c1C)C(c1ccc(N3CCN(C(=O)c4ccc(C(=O)N[C@H]5CC[C@H](Oc6ccc(C#N)c(Cl)c6)CC5)nn4)CC3)cc1)=N[C@H](Cc1ncco1)c1nnc(C)n1-2 [I-251] | < 0.5 | < 0.5 | – | – | 0.5 to 1.5 | < 0.5 | – | – |
| Cc1sc2c(c1C)C(c1ccc(O[C@H]3C[C@@]4(CCCN(c5ccc(C(=O)N[C@H]6CC[C@H](Oc7ccc(C#N)c(Cl)c7)CC6)nn5)C4)C3)cn1)=N[C@@H](Cc1ncco1)c1nnc(C)n1-2 [I-261] | < 0.5 | < 0.5 | – | – | < 0.5 | < 0.5 | – | – |
| Cc1sc2c(c1C)C(c1ccc(OC[C@H]3C[C@]4(CCCN(c5ccc(C(=O)N[C@H]6CC[C@H](Oc7ccc(C#N)c(Cl)c7)CC6)nn5)C4)C3)nc1)=N[C@@H](Cc1ncco1)c1nnc(C)n1-2 [I-262] | < 0.5 | < 0.5 | – | – | > 3 | < 0.5 | – | – |
| Cc1sc2c(c1C)C(c1ccc(OC[C@H]3C[C@@]4(CCCN(c5ccc(C(=O)N[C@H]6CC[C@H](Oc7ccc(C#N)c(Cl)c7)CC6)nn5)C4)C3)nc1)=N[C@@H](Cc1ncco1)c1nnc(C)n1-2 [I-263] | < 0.5 | 0.5 to 1.5 | – | – | > 3 | < 0.5 | – | – |
| Cc1sc2c(c1C)C(c1ccc(C(=O)N3CC[C@]4(CCCN(c5ccc(C(=O)N[C@H]6CC[C@H](Oc7ccc(C#N)c(Cl)c7)CC6)nn5)C4)C3)cc1)=N[C@H](Cc1ncco1)c1nnc(C)n1-2 [I-272] | 1.5 to 3 | 1.5 to 3 | – | – | > 3 | < 0.5 | – | – |
| Cc1sc2c(c1C)C(c1ccc(C(=O)N3CCC[C@@H](Cc4ccc(C(=O)N[C@H]5CC[C@H](Oc6ccc(C#N)c(Cl)c6)CC5)nn4)C3)cc1)=N[C@H](Cc1ncco1)c1nnc(C)n1-2 [I-275] | > 3 | > 3 | – | – | > 3 | < 0.5 | – | – |
| Cc1sc2c(c1C)C(c1ccc(C#CC3CC4(C3)CN(c3ccc(C(=O)N[C@H]5CC[C@H](Oc6ccc(C#N)c(Cl)c6)CC5)nn3)C4)cn1)=N[C@H](Cc1ncco1)c1nnc(C)n1-2 [I-281] | < 0.5 | < 0.5 | – | – | < 0.5 | < 0.5 | – | – |
| Cc1sc2c(c1C)C(c1ccc(O[C@@H]3CC[C@]4(CCCN(c5ccc(C(=O)N[C@H]6CC[C@H](Oc7ccc(C#N)c(Cl)c7)CC6)nn5)C4)C3)nc1)=N[C@@H](Cc1ncco1)c1nnc(C)n1-2 [I-284] | < 0.5 | 0.5 to 1.5 | – | – | – | < 0.5 | < 0.5 | – |
| Cc1sc2c(c1C)C(c1ccc(O[C@@H]3CC[C@@]4(CCCN(c5ccc(C(=O)N[C@H]6CC[C@H](Oc7ccc(C#N)c(Cl)c7)CC6)nn5)C4)C3)nc1)=N[C@@H](Cc1ncco1)c1nnc(C)n1-2 [I-285] | < 0.5 | – | 1.5 to 3 | – | – | < 0.5 | > 3 | – |
| Cc1sc2c(c1C)C(c1ccc(O[C@@H]3CC[C@]4(CCCN(c5ccc(C(=O)N[C@H]6CC[C@H](Oc7ccc(C#N)c(Cl)c7)CC6)nn5)C4)C3)nc1)=N[C@@H](Cc1ncco1)c1nnc(C)n1-2 [I-286] | – | – | 0.5 to 1.5 | < 0.5 | – | – | > 3 | < 0.5 |
| Cc1sc2c(c1C)C(c1ccc(O[C@@H]3CC[C@@]4(CCCN(c5ccc(C(=O)N[C@H]6CC[C@H](Oc7ccc(C#N)c(Cl)c7)CC6)nn5)C4)C3)nc1)=N[C@@H](Cc1ncco1)c1nnc(C)n1-2 [I-287] | – | – | 0.5 to 1.5 | < 0.5 | – | – | < 0.5 | < 0.5 |
